In patent publication US4220755A, “Fortimicin B derivatives and process for production thereof” (Abbott Laboratories, priority 1976, dated 1980):
In brackets after ≈: the same amount, converted by molar mass.

Assays:
[1] = test system: Klebsiella pneumoniae 3020 Y-60; assay: MIC, agar dilution method, pH 7.2; assay type: cell-based; settings: Klebsiella pneumoniae, 3020Y60, pH 7.2, read-out: Minimum inhibition concentration (MIC)
Description: (§1) Measurement was carried out according to the agar dilution method, using a medium of pH 8.0, or the Japanese Antibiotic Medicament Standard, using a medium of pH 7.2 Units are in mcg/ml.
(§2) **1: gentamicin, producing adenylsynthetase.

Escherichia coli 76-2 = assay: MIC, agar dilution method, pH 7.2; assay type: cell-based; settings: Escherichia coli, 762; pH 7.2; E. coli 76-2; 1**: gentamicin, producing adenylsynthetase; read-out: Minimum inhibition concentration (MIC)
Description: as §1, §2

[2] = test system: Escherichia coli R12 Z-338; assay: MIC, agar dilution method, pH 7.2; assay type: cell-based; settings: R12Z338, pH 7.2, E. coli R12 Z-338, 1**: gentamicin, producing adenylsynthetase, read-out: Minimum inhibition concentration (MIC)
Description: as §1, §2

[3] = test system: Escherichia coli 57R/W677; assay: MIC, agar dilution method, pH 7.2; assay type: cell-based; settings: 57R/W677, pH 7.2, read-out: Minimum inhibition concentration (MIC)
Description: as §1, §2

[4] = test system: Pseudomonas aeruginosa R5 KY8512; assay: MIC, agar dilution method, pH 7.2; assay type: cell-based; settings: R5KY8512, pH 7.2, read-out: Minimum inhibition concentration (MIC)
Description: as §1
6: neomycin, producing phosphotransferase type I and type II.

Escherichia coli NIHTC-2 = assay: MIC, agar dilution method, pH 7.2; assay type: cell-based; settings: Escherichia coli, NIHTC2, pH 7.2, read-out: Minimum inhibition concentration (MIC)
Description: as §1

[5] = test system: Salmonella enteritidis G-14; assay: MIC, agar dilution method, pH 7.2; assay type: cell-based; settings: Salmonella enterica, ENTERITIDIS, pH 7.2, read-out: Minimum inhibition concentration (MIC)
Description: as §1

[6] = test system: Staphylococcus aureus 209-P; assay: MIC, agar dilution method, pH 7.2; assay type: cell-based; settings: Staphylococcus aureus, 209P, pH 7.2, read-out: Minimum inhibition concentration (MIC)
Description: as §1

Shigella sonnei ATCC9290 = assay: MIC, agar dilution method, pH 7.2; assay type: cell-based; settings: read-out: Minimum inhibition concentration (MIC)
Description: as §1

[7] = test system: Klebsiella pneumoniae KY4274; assay: MIC, agar dilution method, pH 7.2; assay type: cell-based; settings: Klebsiella pneumoniae, KY4274, pH 7.2, read-out: Minimum inhibition concentration (MIC)
Description: as §1

[8] = test system: Eschericihia coli GN2411-5; assay: MIC, agar dilution method, pH 7.2; assay type: cell-based; settings: Escherichia coli, GN2411, pH 7.2, read-out: Minimum inhibition concentration (MIC)
Description: as §1

[9] = test system: Pseudomonas aeruginosa BMH# 1; assay: MIC, agar dilution method, pH 7.2; assay type: cell-based; settings: Pseudomonas aeruginosa, pH 7.2, read-out: Minimum inhibition concentration (MIC)
Description: as §1

[10] = test system: Staphylococcus aureus Smith (A); assay: MIC, agar dilution method, pH 7.2; assay type: cell-based; settings: Staphylococcus aureus, pH 7.2, read-out: Minimum inhibition concentration (MIC)
Description: as §1

Proteus vulgaris JJ = assay: MIC, agar dilution method, pH 7.2; assay type: cell-based; settings: Proteus vulgaris, pH 7.2, read-out: Minimum inhibition concentration (MIC)
Description: as §1

[11] = test system: Pseudomonas aeruginosa UCLA 4184; assay: MIC, agar dilution method, pH 7.2; assay type: cell-based; settings: Pseudomonas aeruginosa, UCLA4184, pH 7.2, read-out: Minimum inhibition concentration (MIC)
Description: as §1

[12] = test system: Escherichia coli R18 KY8321; assay: MIC, agar dilution method, pH 7.2; assay type: cell-based; settings: R18KY8321, E. coli R18 KY8321, 2**: gentamicin, producing adenylsynthetase and neomycin phosphotransferase type II, read-out: Minimum inhibition concentration (MIC)
Description: as §1
2: gentamicin, producing adenylsynthetase and neomycin phosphotransferase

[13] = test system: Staphylococcus a ureus 226; assay: MIC, agar dilution method, pH 7.2; assay type: cell-based, Staphylococcus aureus; settings: pH 7.2, read-out: Minimum inhibition concentration (MIC)
Description: as §1

[14] = test system: Escherichia coli R19 KY8348; assay: MIC, agar dilution method, pH 7.2; assay type: cell-based; settings: R19KY8348, pH 7.2, read-out: Minimum inhibition concentration (MIC)
Description: as §1
(§3) 4: gentamicin, producing acetyltransferase type I.

[15] = test system: Pseudomonas aeruginosa R4 KY8511; assay: MIC, agar dilution method, pH 7.2; assay type: cell-based; settings: R4KY8511, pH 7.2, read-out: Minimum inhibition concentration (MIC)
Description: as §1, §3

Eschericihia coli 3100 = assay: MIC, agar dilution method, pH 7.2; assay type: cell-based, Escherichia coli; settings: Escherichia coli, 3100, pH 7.2, read-out: Minimum inhibition concentration (MIC)
Description: as §1

[16] = test system: Escherichia coli R20 KY8349; assay: MIC, agar dilution method, pH 7.2; assay type: cell-based; settings: R20KY8349, pH 7.2, E. coli R20 KY8349, 5**: neomycin, producing phosphotransferase type I, read-out: Minimum inhibition concentration (MIC)
Description: as §1
5: neomycin, producing phosphotransferase type I.

[17] = test system: Pseudomonas aeruginosa R9 KY8516; assay: MIC, agar dilution method, pH 7.2; assay type: cell-based; settings: R9KY8516, pH 7.2, read-out: Minimum inhibition concentration (MIC)
Description: as §1
(§4) 3: kanamycin, producing acetyltransferase.

[18] = test system: Escherichia coli R17 Z343; assay: MIC, agar dilution method, pH 7.2; assay type: cell-based; settings: R17Z343, pH 7.2, E. coli R17 Z343, 3**: kanamycin, producing acetyltransferase, read-out: Minimum inhibition concentration (MIC)
Description: as §1, §4

Serratia marcescens 1065 = assay: MIC, agar dilution method, pH 7.2; assay type: cell-based; settings: Serratia marcescens, 1065, pH 7.2, read-out: Minimum inhibition concentration (MIC)
Description: as §1, §4

Providencia sp 164 = assay: MIC, agar dilution method, pH 7.2; assay type: cell-based; settings: pH 7.2; Providencia sp 164; 7**: gentamicin, producing acetyltransferase type II; read-out: Minimum inhibition concentration (MIC)
Description: as §1
7: gentamicin, producing acetyltransferase type II.

[19] = test system: Eschericia coli KY4271 ATCC26; assay: MIC, agar dilution method, pH 8.0; assay type: cell-based; settings: Escherichia coli, ATCC26; pH 8.0; E. coli KY4271; read-out: Minimum inhibition concentration (MIC), EC
Description: as §1
E.C.: Eschericia coli KY4271 ATCC26

Bacillus subtilis KY4273 = assay: MIC, agar dilution method, pH 8.0; assay type: cell-based; settings: pH 8.0; Bacillus subtilis KY4273; read-out: Minimum inhibition concentration (MIC), BS
Description: as §1
B.S.: Bacillus subtilis KY4273

[20] = test system: Klebsiella pneumoniae KY4275 ATCC10031; assay: MIC, agar dilution method, pH 8.0; assay type: cell-based; settings: ATCC10031; pH 8.0; Klebsiella pneumoniae KY4275; read-out: Minimum inhibition concentration (MIC), KP
Description: as §1
K.P.: Klebsiella pneumoniae KY4275 ATCC10031.

[21] = test system: Shigella sonnei KY4281 ATCC9290; assay: MIC, agar dilution method, pH 8.0; assay type: cell-based; settings: ATCC9290; pH 8.0; Shigella sonnei KY4281; read-out: Minimum inhibition concentration (MIC), SS
Description: as §1

[22] = test system: Proteus vulgaris KY4277 ATCC6897; assay: MIC, agar dilution method, pH 8.0; assay type: cell-based; settings: ATCC6897; pH 8.0; Proteus vulgaris KY4277; read-out: Minimum inhibition concentration (MIC), PV
Description: as §1

[23] = test system: Salmonella typhosa KY4278 ATCC9992; assay: MIC, agar dilution method, pH 8.0; assay type: cell-based; settings: Salmonella enterica, pH 8, read-out: Minimum inhibition concentration (MIC), ST
Description: as §1
S.T.: Salmonella typhosa KY4278 ATCC9992

[24] = test system: Staphylococcus aureus KY4279 ATCC6538P; assay: MIC, agar dilution method, pH 8.0; assay type: cell-based; settings: pH 8.0, Staphylococcus aureus KY4279, read-out: Minimum inhibition concentration (MIC), SA
Description: as §1
S.A.: Staphylococcus aureus KY4279 ATCC6538P

**Q.** For `NC[C@H]1O[C@H](O[C@H]2[C@H](O)[C@@H](O[C@H]3O[C@H](CO)[C@@H](O)[C@H](N)[C@H]3O)[C@H](N)C[C@@H]2N)[C@H](O)[C@@H](O)[C@@H]1O` [KA, kanamycin A, reference compound], which MIC [1] is on record?
**A.** Its MIC is greater than 100 µg/mL.

**Q.** And the MIC (Escherichia coli 76-2)?
**A.** Its MIC is greater than 100 µg/mL.

**Q.** And the MIC [2]?
**A.** The MIC was 100 µg/mL (≈ 206 µM).

**Q.** What about the MIC [3] of the same compound?
**A.** The MIC was greater than 100 µg/mL.

**Q.** What about the MIC [4] of the same compound?
**A.** The MIC was greater than 100 µg/mL.

**Q.** And the MIC (Escherichia coli NIHTC-2)?
**A.** Its MIC is 1.56 µg/mL (≈ 3.22 µM).

**Q.** And the MIC [5]?
**A.** The MIC was 3.12 µg/mL (≈ 6.44 µM).

**Q.** What about the MIC [6] of the same compound?
**A.** Its MIC is 0.4 µg/mL (≈ 0.826 µM).

**Q.** And the MIC (Shigella sonnei ATCC9290)?
**A.** The MIC was 3.12 µg/mL (≈ 6.44 µM).

**Q.** What about the MIC [7] of the same compound?
**A.** Its MIC is greater than 100 µg/mL.

**Q.** And the MIC [8]?
**A.** Its MIC is 3.12 µg/mL (≈ 6.44 µM).

**Q.** What about the MIC [9] of the same compound?
**A.** Its MIC is 25 µg/mL (≈ 51.6 µM).

**Q.** What about the MIC [10] of the same compound?
**A.** The MIC was 0.4 µg/mL (≈ 0.826 µM).

**Q.** What about the MIC (Proteus vulgaris JJ) of the same compound?
**A.** The MIC was 1.56 µg/mL (≈ 3.22 µM).

**Q.** And the MIC [11]?
**A.** The MIC was greater than 100 µg/mL.

**Q.** And the MIC [12]?
**A.** The MIC was greater than 100 µg/mL.

**Q.** What about the MIC [13] of the same compound?
**A.** Its MIC is 0.78 µg/mL (≈ 1.61 µM).

**Q.** And the MIC [14]?
**A.** Its MIC is 1.56 µg/mL (≈ 3.22 µM).

**Q.** What about the MIC [15] of the same compound?
**A.** The MIC was 100 µg/mL (≈ 206 µM).

**Q.** And the MIC (Eschericihia coli 3100)?
**A.** The MIC was 3.12 µg/mL (≈ 6.44 µM).

**Q.** And the MIC [16]?
**A.** The MIC was greater than 100 µg/mL.

**Q.** And the MIC [17]?
**A.** Its MIC is greater than 100 µg/mL.

**Q.** What about the MIC [18] of the same compound?
**A.** The MIC was 12.5 µg/mL (≈ 25.8 µM).

**Q.** What about the MIC (Serratia marcescens 1065) of the same compound?
**A.** The MIC was 100 µg/mL (≈ 206 µM).

**Q.** And the MIC (Providencia sp 164)?
**A.** Its MIC is greater than 100 µg/mL.

**Q.** Which results are given for `CO[C@H]1[C@@H](O)[C@H](N)[C@@H](O[C@H]2O[C@H]([C@H](C)N)CC[C@H]2N)[C@H](O)[C@@H]1N(C)C(=O)CCCCCN` [Compound 12, 4-N-(ε-amino-n-caproyl)fortimicin B]?
**A.** MIC [19]: > 20 µg/mL; MIC (Bacillus subtilis KY4273): > 20 µg/mL; MIC [20]: > 20 µg/mL; MIC [21]: > 20 µg/mL; MIC [22]: > 20 µg/mL; MIC [23]: > 20 µg/mL; MIC [24]: > 20 µg/mL
